Test results published in US20200078363A1, “POST-SURGICAL PAIN TREATMENT” (Heron Therapeutics, Inc., priority 2018, published 2020).

Tested on: post-surgical incisional (post-operative or POP) pain
Assay: Post-operative (POP) pain porcine model, von Frey test
Assay type: in vivo
Details: Group 1: IV aprepitant 6 mg/kg once prior to surgery and daily for 5 days after surgery, no other medication; 4 pigs
Source text: Example 1 describes three studies conducted to evaluate the capacity to reduce post-surgical incisional (post-operative or POP) pain in a porcine model system. Using a post-operative (POP) pain porcine model system, where a 7 cm long skin and fascia incision was made in the left flank under general anesthesia to pigs, NK-1 receptor antagonist alone or in combination with pain medication (i.e., bupivacaine and meloxicam) were applied to the wound. The skin incision was then closed using sterile sutures. Various methods were evaluated for their capacity to reduce post-surgical incisional (post-operative or POP) pain in a porcine model system. […] All studies described below evaluated 4 pigs per group. Post-operative pain was assessed using the von Frey methodology. […] By alternating the filament thickness, the gram force required to achieve withdrawal reaction was determined and recorded. […] Several studies evaluated emulsion compositions containing aprepitant (diluted 1:7) with saline, administered by intravenous infusion dosed at 6 mg/kg as a slow bolus via an IV catheter in the ear. […] Analgesia was evaluated by response in the von Frey test, as described above. […] By following similar procedures described in Example 1, the analgesic effect of a lower dose of aprepitant (i.e., lower than 6.0 mg/kg) was evaluated. […]

## C[C@@H](O[C@H]1OCCN(Cc2n[nH]c(=O)[nH]2)[C@H]1c1ccc(F)cc1)c1cc(C(F)(F)F)cc(C(F)(F)F)c1 [aprepitant]
  analgesia, von Frey response (withdrawal force): little analgesic response
